What was measured:
[1] = target: T1, steroid sulphatase (Homo sapiens, UniProt P08842); details: R. P. Boivin et al., J. Med. Chem. 2000; cited from earlier work
T1 sequence (P08842 22-583): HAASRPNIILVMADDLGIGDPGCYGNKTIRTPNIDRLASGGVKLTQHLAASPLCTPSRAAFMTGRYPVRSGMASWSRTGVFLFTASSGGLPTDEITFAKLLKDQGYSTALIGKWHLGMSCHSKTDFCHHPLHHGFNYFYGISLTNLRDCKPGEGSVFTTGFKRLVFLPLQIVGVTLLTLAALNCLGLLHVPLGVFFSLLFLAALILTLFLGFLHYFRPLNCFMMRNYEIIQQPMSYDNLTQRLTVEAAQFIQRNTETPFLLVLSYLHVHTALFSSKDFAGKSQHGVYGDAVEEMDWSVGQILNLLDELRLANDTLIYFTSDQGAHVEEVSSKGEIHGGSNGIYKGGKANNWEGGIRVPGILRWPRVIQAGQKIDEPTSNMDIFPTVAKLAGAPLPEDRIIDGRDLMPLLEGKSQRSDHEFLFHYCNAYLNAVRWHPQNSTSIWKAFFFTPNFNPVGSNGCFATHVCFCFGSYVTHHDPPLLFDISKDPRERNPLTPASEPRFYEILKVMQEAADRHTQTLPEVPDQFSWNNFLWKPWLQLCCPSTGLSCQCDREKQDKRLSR

[2] = system: sun-damaged skin; details: hairless mice; Gendimenico et al. 2002; cited from earlier work
[3] = system: TGF-β; experiment: Expression of inflammation markers in the wound model (second study): TGF-β; assay type: in vivo, mice
[4] = system: MIF; experiment: Expression of inflammation markers in the wound model (second study): MIF; assay type: in vivo, mice
[5] = system: estrogen receptor; experiment: Activity on the estrogen receptor in ERE-luc mice, photometric analysis with CCD camera; assay type: in vivo
Experimental: (§1) The activity of two compounds of the invention, 17α-(5-acetoxy)pent-1-inyl-1,3,5(10)-estratriene-3,17β-diol and 17α-(5-propanoyl-oxy)pent-1-inyl-1,3,5(10)-estratriene-3,170-diol, was determined in a cell culture and in a transgenic animal model using female adult ERE-luc mice which were ovariectomised or sham-operated three weeks before the experiment. This model allows the anti-inflammatory activity, effect on the estrogen receptor and wound-healing activity to be evaluated.
(§2) Each of the two test compounds was dissolved immediately before use in 99% ethanol, and a 10 mM mother solution was prepared. The successive dilutions were performed in saline solution (0.9% NaCl in bidistilled water).
The activity on the estrogen receptor was evaluated by photometric analysis with CCD chamber after 0, 24, 48 and 72 hours. The animals were then killed, and the tissue surrounding the wound was removed.

[6] = system: ERβ; experiment: Expression of estrogen receptors in ovariectomised animals: ERβ-positive cells; assay type: in vivo, mice
[7] = system: cutaneous wound; experiment: Wound-healing activity: histological sections of the tissue surrounding the wound; assay type: in vivo, mice
Experimental: as §1, §2
Histological sections were prepared from the tissue surrounding the wound to evaluate the wound-healing activity. For the histological preparation, the tissue was fixed in 10% formalin (in buffer solution) and embedded in paraffin wax. The sections were stained with haematoxylin-eosin to evaluate the state of inflammation and wound-healing. The sections were also used to quantify the state of infiltration of the macrophages 4 days after the wound, using anti-Mac2 antibodies, and for further staining designed to detect the state of wound-healing and characterise the cells present in the wound area.

[8] = system: ERα; experiment: Expression of estrogen receptors in ovariectomised animals: ERα-positive cells; assay type: in vivo, mice
[9] = system: CD74; experiment: Expression of inflammation markers in the wound model (second study): CD74; assay type: in vivo, mice
[10] = system: IL-6; experiment: Expression of inflammation markers in the wound model (second study): IL-6; assay type: in vivo, mice
[11] = system: wound; details: cited from earlier work; for wound-healing on topical use: used topically, Ashcroft et al. 2003b

C[C@]12CC[C@@H]3c4ccc(O)cc4CC[C@H]3[C@@H]1CC[C@@]2(O)C#CCBr [17α-(3-bromopropin-1-yl)estradiol]
inhibitory effect on steroid sulphatase [1]: high

CC12CCC3c4ccc(O)cc4CCC3C1CCC2(O)C#CCO (stereo not drawn) [17α-(3-hydroxypropin-1-yl)estradiol]
inhibitory effect on steroid sulphatase [1]: very low

C[C@]12CC[C@@H]3c4ccc(O)cc4CC[C@H]3[C@@H]1CC[C@H]2O [17α-estradiol]
repair of sun-damaged skin [2]: repair the sun-damaged skin of hairless mice

CC(=O)OCCCC#C[C@]1(O)CC[C@H]2[C@@H]3CCc4cc(O)ccc4[C@H]3CC[C@@]21C [Example 7, 17α-(5-acetoxy)pent-1-ynyl-1,3,5(10)-estratrien-3,17β-diol]
expression of TGF-β [3]: significantly inhibited the expression | expression of MIF [4]: significantly inhibited the expression | estrogenic effect in areas other than the area of administration (systemic activity) ([5]; mouse, in vivo): does not have a detectable estrogenic effect | uterotrophic activity ([5]; mouse, in vivo): does not present uterotrophic activity | number of cells that express the β estrogen receptor [6]: does not significantly reduce the number of cells that express the β receptor | efficacy of the wound-healing effect ([7]; second study, 5 animals per group, compared with estradiol): statistically similar to that of the natural hormone | effect on the wound-healing process ([7]; summary statement): marked effect on the wound-healing process | number of cells that test positive for the α estrogen receptor [8]: does not act on the number of cells that test positive for the α receptor | expression of CD74 [9]: significantly inhibited the expression

CCC(=O)OCCCC#CC1(O)CCC2C3CCc4cc(O)ccc4C3CCC21C (stereo not drawn) [Example 8, 17α-(5-Propanoyloxy)pent-1-ynyl-1,3,5(10)-estratrien-3,17β-diol]
estrogenic effect in areas other than the area of administration (systemic activity) ([5]; CCD camera, intradermal in loco): a slight systemic activity

C[C@]12CC[C@@H]3c4ccc(O)cc4CC[C@H]3[C@@H]1CC[C@@H]2O [estradiol, 17beta-estradiol]
expression of IL-6 [10]: limit the expression of all the inflammation proteins studied | wound-healing on topical use [11]: promote wound-healing | expression of TGF-β [3]: limit the expression of all the inflammation proteins studied | expression of MIF [4]: limit the expression of all the inflammation proteins studied | number of cells that express the β estrogen receptor [6]: increases the number of cells that test positive for both receptors | expression of CD74 [9]: limit the expression of all the inflammation proteins studied | repair of sun-damaged skin [2]: repair the sun-damaged skin of hairless mice

C[C@]12CC[C@@H]3c4ccc(O)cc4CC[C@H]3[C@@H]1C[C@@H](O)[C@@H]2O [estriol]
activity relative to estradiol ([11]; Shah et al. 2001): much less active than estradiol | wound-healing on topical use [11]: promote wound-healing
